Assay results taken from article PMC4745926, “Absorption, Metabolism, and Excretion by Freely Moving Rats of 3,4-DHPEA-EDA and Related Polyphenols from Olive Fruits (Olea europaea)” (Journal of Nutrition and Metabolism, 2016).
Several values for one entry are separate records, joined by “and”; a condition that tells them apart may be missing. Identical values can stand only once. Entries after “also recorded” stand apart in the source; their conditions may differ.

Assay: Urinary excretion after oral administration
Type: in vivo, Wistar ST rats
Protocol: SPF Wistar ST rats (6 weeks of age, male, 180 ± 20 g of body weight) were purchased from Japan SLC Inc. (Hamamatsu, Japan). The rats were housed in an air-conditioned room at 22 ± 2°C under cycles of 12 hours dark and 12 hours light and given free access to a commercial diet and water for a week. The rats were then fasted for over 16 hours before the experiments. The present study was approved by the Animal Care and Use Committee at Kagawa University, and the rat treatment conformed to the Rules of Animal Experiments at Kagawa University. 3,4-[…] (300 mg/kg body weight; 936.51 μmol/kg) dissolved in 50% polyethylene glycol aqueous solution was administered orally via a stomach tube to the portal vein cannulated rats. Blood samples (450 μL) were then collected using a heparinized syringe attached to the cannula before administration and 5, 15, 30, 60, 120, and 240 min after administration. Urine was also collected before administration and 0 to 2 h and 2 to 4 h after administration. For intravenous administration, 3,4-[…] (10 mg/kg; 31.22 μmol/kg) was injected into the jugular vein, and blood (450 μL) was collected using a heparinized syringe before administration and 5, 15, 30, 60, 120, and 240 min after administration via the jugular vein cannula. The blood (450 μL) collected was immediately cooled on ice and centrifuged at 15,000 rpm for 5 min at 4°C to obtain over 200 μL plasma. Urine was also collected before administration and 0 to 2 h and 2 to 4 h after administration. Bile was collected via the bile duct cannula before administration and 0 to 2 h and 2 to 4 h after intravenous administration. The collected plasma, urine, and bile were immediately stored in an ice box until further analyses. HT (oral administration: 100 mg/kg; 648.66 μmol/kg, intravenous administration: 10 mg/kg; 64.87 μmol/kg) and Ole (oral administration: 300 mg/kg; 555.02 μmol/kg, intravenous administration: 10 mg/kg; 18.50 μmol/kg) were investigated using the same method as described above. Metabolites were deconjugated by using β-glucuronidase (500 U) and sulfatase (50 U) in 50 μL 625 mM MOPS (pH 6.8), which was added to 200 μL of plasma, urine, or bile. The mixture was incubated for 45 min at 37°C and subjected to extraction using QuEChERS [33]. […] Shimadzu, Kyoto, Japan) equipped with a Shim-pack XR-ODS column (3.0 mm I.D. × 100 mm; Shimadzu, Kyoto, Japan) at 40°C with a mobile phase of 0.5% TFA-1% acetonitrile aqueous solution (A) and 0.5% TFA-75% acetonitrile aqueous solution (B). The elution conditions are described as follows: isocratic elution of 0% B was maintained for 4.0 min; linear gradient 0 to 4% B, 4.0-4.5 min; linear gradient 4.0-16.0% B, 4.5-16.0 min; linear gradient 16.0-100% B, 16.0-25.0 min; isocratic elution of 100% B, 25.0-26.0 min; and linear gradient 100 to 0% B, 26.0-26.1 min, with a flow rate of 0.5 mL/min. Injection volume was 50 μL. All eluted peaks were detected at 279 nm with a diode array detector (SPD-M20A; Shimadzu, Kyoto, Japan).

[1] = after oral administration, within 240 min

SMILES: CC=C(C=O)C(CC=O)CC(=O)OCCc1ccc(O)c(O)c1 (centres unmarked) [3,4-DHPEA-EDA, 3,4-dihydroxyphenylethyl elenolate dialdehydic form]
- Detection of 3,4-DHPEA-EDA in urine (after oral administration): not observed; also recorded: not detected
- HT in urine [1]: 0.51 % of dose
- HVA in urine [1]: 0.38 % of dose and 0.39 % of dose
- HVAOH in urine [1]: not detected
- total excretion ratio including metabolites (3,4-DHPEA-EDA : HT : Ole) (urine after oral administration, Ole = 1): 12.9
- Total metabolites (including intact compound) excreted in the urine (within 240 min after oral administration): 0.9%

SMILES: OCCc1ccc(O)c(O)c1 [Hydroxytyrosol, 2-(3,4-dihydroxyphenyl) ethyl alcohol, reference compound]
- HT in urine [1]: 1.14 % of dose

SMILES: C/C=C1/[C@H](O[C@@H]2O[C@H](CO)[C@@H](O)[C@H](O)[C@H]2O)OC=C(C(=O)OC)[C@H]1CC(=O)OCCc1ccc(O)c(O)c1 [Oleuropein, reference compound]
- Ole in urine (after oral administration): 0.07 % of dose
